Patent publication US6391595B1, “Transferase and amylase, process for producing the enzymes, use thereof, and gene coding for the same” (Kirin Beer Kabushiki Kaisha, priority 1994, dated 2002)

Assays:
Format in all cases: biochemical
[1] = test system: transferase derived from the Sulfolobus solfataricus strain DSM 5833; assay: Inhibitor of transferase (glucosyltrehalose-producing activity); details: 5 mM CuSO4
Experimental: (§1) The influence of each substance listed in Table 8, such as an activating effect or inhibitory effect, was evaluated using similar activity-measuring method to that in Example I-1. Specifically, the listed substances were individually added together with the substrate to the same reaction system as that in the method for measuring glucosyltrehalose-producing activity employed in Example I-1.
(§2) Incidentally, each of the purified enzymes which were obtained in Examples I-3-I-5 and derived from the Sulfolobus solfataricus strain DSM 5833, the Sulfolobus acidocaldarius strain ATCC 33909, and the Acidianus brierleyi strain DSM 1651, respectively, was examined for enzymatic characteristics by using similar manner.

[2] = test system: transferase derived from the Sulfolobus acidocaldarius strain ATCC 33909; assay: as above; details: 5 mM CuSO4
Experimental: as §1, §2

[3] = test system: transferase derived from the Acidianus brierleyi strain DSM 1651; assay: as above; details: 5 mM CuSO4
Experimental: as §1, §2

[4] = test system: amylase derived from the Sulfolobus acidocaldarius strain ATCC 33909; assay: Inhibitor of amylase (maltotriosyltrehalose-hydrolyzing activity); details: 5 mM CuSO4
Experimental: (§3) The influence of each substance listed in Table 15, such as an activating effect or inhibitory effect, was evaluated using similar activity-measuring method to that in Example II-1. Specifically, the listed substances were individually added together with the substrate to the same reaction system as that in the method for measuring maltotriosyltrehalose-hydrolyzing activity employed in Example II-1. […] As to the inhibitory effect by SDS, however, the enzymatic activity revived after SDS was removed by dialysis, ultrafiltration or the like.
(§4) Additionally, each of the purified enzymes obtained in Examples II-3 and II-4, i.e. derived from the Sulfolobus solfataricus strain DSM 5833 and the Sulfolobus acidocaldarius strain ATCC 33909, respectively, was also examined for the enzymatic characteristics in a similar manner.

[5] = test system: amylase derived from the Sulfolobus solfataricus strain DSM 5833; assay: as above; details: 5 mM CuSO4
Experimental: as §3, §4

[6] = test system: transferase derived from the Sulfolobus solfataricus strain KM1; assay: Influence of activators and inhibitors on glucosyltrehalose-producing activity
[7] = test system: debranching enzyme derived from the Sulfolobus solfataricus strain KM1; assay: Influence of activators and inhibitors on debranching enzyme activity
[8] = target: T1, amylase derived from the Sulfolobus solfataricus strain KM1 (Saccharolobus solfataricus, UniProt Q55088); assay: biochemical
T1 construct: endogenous in cells; host or cells: Sulfolobus solfataricus strain KM1 cells
T1 sequence (Q55088 1-559): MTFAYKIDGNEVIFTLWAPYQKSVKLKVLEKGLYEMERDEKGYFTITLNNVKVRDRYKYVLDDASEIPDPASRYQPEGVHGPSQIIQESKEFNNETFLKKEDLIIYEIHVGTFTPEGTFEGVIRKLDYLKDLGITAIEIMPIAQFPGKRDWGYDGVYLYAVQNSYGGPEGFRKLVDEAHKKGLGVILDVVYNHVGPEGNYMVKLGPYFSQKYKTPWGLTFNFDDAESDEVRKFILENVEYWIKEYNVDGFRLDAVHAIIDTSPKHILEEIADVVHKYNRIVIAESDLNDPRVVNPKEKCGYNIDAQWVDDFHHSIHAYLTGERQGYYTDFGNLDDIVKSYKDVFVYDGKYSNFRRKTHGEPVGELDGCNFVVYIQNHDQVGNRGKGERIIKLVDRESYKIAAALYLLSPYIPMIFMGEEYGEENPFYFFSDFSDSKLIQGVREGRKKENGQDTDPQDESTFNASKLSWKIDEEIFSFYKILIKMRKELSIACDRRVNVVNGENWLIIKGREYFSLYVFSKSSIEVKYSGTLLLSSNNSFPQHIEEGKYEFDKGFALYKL

Compound: O=S(=O)([O-])[O-].[Cu+2] [CuSO4]
- Inhibitor, inhibited [1]: 100% inhibited
- Inhibitor, inhibited [2]: 100% inhibited
- Inhibitor, inhibited [3]: 100% inhibited
- Inhibitor, inhibited [4]: 100% inhibited
- Inhibitor, inhibited [5]: 100% inhibited
- Inhibitor, inhibited ([6]; 5 mM CuSO4): 100% inhibited
- Residual activity ([6]; Concentration 5 mM): 0.0%
- Activating or inhibitory effect ([6]; added with the substrate): inhibitory effects
- Residual activity ([7]; Concentration 5 mM): 0.0%
- Activating or inhibitory effect ([7]; added with the substrate): inhibitory effects
- Inhibitor, inhibited ([8]; 5 mM CuSO4): 100% inhibited
- Residual activity ([8]; Concentration 5 mM): 0%
- Activating or inhibitory effect ([8]; added with the substrate): inhibitory effects
